These results are taken from PMC6503114, “Application of Antimicrobial Peptides of the Innate Immune System in Combination With Conventional Antibiotics—A Novel Way to Combat Antibiotic Resistance?” (Frontiers in Cellular and Infection Microbiology, 2019).

Where two headings read alike, the source gives them in different places. Marks after values point to notes of the source that are not given here. Bridges are numbered along the chain shown (N, C = ends). Where no end group is shown, it is not given here. Bounds are passed on as bounds.

Assay [1] has as its system E. coli ESBL 521/17. Kind of assay: Checkerboard titration (FICI). Format: cell-based, Escherichia coli. How it is done: (§1) The combined antimicrobial action of AMPs and other antimicrobial compounds was assessed using checkerboard titration approach under the conditions similar to that of the microdilution assay. According to checkerboard titration template, one component (A) of the combination was diluted along the rows of the plate, while the other (B) was diluted down the columns, thereby creating the variety of mixtures with different concentrations of tested compounds. 2.5 μl of corresponding solutions of the components A and B were added into each well of the plate. Into the first column and the last row the same amount of 10 mM sodium phosphate buffer, pH 7.4, containing 0.1% of BSA was introduced instead of the second component. Thus, all wells contained 5 μl of antimicrobial compounds solutions (solo or in combination). The same volume of bacterial suspension, prepared as described for microdilution assay, was added into each well. The results were recorded after the overnight incubation, visually indicating the presence or absence of the microbial growth in the corresponding wells. Based on the obtained data the isobolograms of combined action were plotted and/or Fractional Inhibitory Concentration Indices (FICI) were calculated. […] Depending on the minimal value of the FICI the combined effect of the combination was classified as antagonism (FICI > 2), independent action (1 < FICI ≤ 2), additivity (0.5 < FICI ≤ 1) or synergy (FICI ≤ 0.5), as is recommended in the literature and due to some drawbacks of the serial dilution method (Hsieh et al., [1993]; Orhan et al., [2005]; Fehri et al., [2007]). FICIs were assessed in 3–6 independent experiments and median values were used to define the nature of interaction.

Assay [2] relates to P. aeruginosa MDR 522/17. Put plainly: Checkerboard titration (FICI). Format: cell-based, Pseudomonas aeruginosa. How it is done: as §1
The test system of assay [3] is K. pneumoniae ESBL 344/17. Kind of assay: Checkerboard titration (FICI). Format: cell-based, Klebsiella pneumoniae. As for the experimental part:
as §1

Assay [4] concerns E. coli ESBL 521/17. Kind of assay: microbe, parasite or virus in culture. In kind it is cell-based. The note with it: Escherichia coli, ESBL521/17; E. coli ESBL 521/17, drug-resistant clinical isolate; square brackets = twice the maximal tested concentration. As for the experimental part: (§2) Prior to the “checkerboard” synergy test the minimal inhibitory concentrations (MIC) of individual substances were determined using broth microdilution assay. Testing was performed in 60-well polystyrene Terasaki microplates with V-shaped bottom generally according to the guidelines of the European Committee for Antimicrobial Susceptibility Testing with subtle modifications designed for AMP testing (Tossi et al., [1997]; Wiegand et al., [2008]). Cultivation of bacteria was carried out in 2.1% Müller-Hinton broth at 37°C with shaking. Two-fold serial dilutions of peptides, antibiotics and other antimicrobials were made with 10 mM sodium phosphate buffer, pH 7.4, containing 0.1% of BSA. The plates were preliminary incubated with 0.1% BSA for 1 h at 37°C to reduce a non-specific binding of peptides to the plates. After that BSA was removed, and serial dilutions were added into the plate wells in triplicates followed by the same volume of the suspension of bacterial cells in logarithmic phase of growth in concentration of 1 × 10^6 CFU/ml. After the 18 h overnight incubation at 37°C, the MIC value for each compound was determined as its lowest concentration completely inhibiting the visible growth of bacteria. The final results were calculated as median values based on 3–6 independent experiments.

Assay [5] concerns S. aureus 1399/17. Put plainly: microbe, parasite or virus in culture. Format: cell-based. The following applies: Staphylococcus aureus. How it is done:
as §2

Assay [6] concerns P. aeruginosa MDR 522/17. Kind of assay: microbe, parasite or virus in culture. In kind it is cell-based. The following applies: Pseudomonas aeruginosa, MDR522/17; P. aeruginosa MDR 522/17, drug-resistant clinical isolate. As for the experimental part: as §2
Assay [7] deals with A. baumannii 7226/16. Put plainly: microbe, parasite or virus in culture. In kind it is cell-based. The following applies: Acinetobacter baumannii; A. baumannii 7226/16, drug-resistant clinical isolate. How it is done: as §2
Assay [8] has as its system K. pneumoniae ESBL 344/17. Put plainly: microbe, parasite or virus in culture. In kind it is cell-based. The note with it: Klebsiella pneumoniae, ESBL344/17; K. pneumoniae ESBL 344/17, drug-resistant clinical isolate. How it is done: as §2
For assay [9], the system named is S. aureus 1399/17. Put plainly: Checkerboard titration (FICI). Format: cell-based, Staphylococcus aureus. As for the experimental part:
as §1

Assay [10] has as its system A. baumannii 7226/16. Put plainly: Checkerboard titration (FICI). Format: cell-based, Acinetobacter baumannii. As for the experimental part:
as §1

Another assay has as its system MRSA ATCC 33591. Put plainly: microbe, parasite or virus in culture. In kind it is cell-based, Staphylococcus aureus. The note with it: median of 3–6 experiments, square brackets = twice the maximal tested concentration.
For a further assay, the system named is bacteria. Kind of assay: Checkerboard titration, synergy cases with conventional antibiotics (all tested bacteria). In kind it is cell-based. The following applies: in vitro, human AMPs. As for the experimental part:
as §1, with “According” for “The combined antimicrobial action of AMPs and other antimicrobial compounds was assessed using checkerboard titration approach under the conditions similar to that of the microdilution assay. According”

Setting [11] is: antibiotic in combination with ChBac3.4.
The mark [12] stands for this setting: antibiotic in combination with PG-1.
The mark [13] stands for this setting: S. aureus 1399/17, drug-resistant clinical isolate, read-out: MIC.

Turning to `NCC[C@H](O)C(=O)N[C@@H]1C[C@H](N)[C@@H](O[C@H]2O[C@H](CN)[C@@H](O)[C@H](O)[C@H]2O)[C@H](O)[C@H]1O[C@H]1O[C@H](CO)[C@@H](O)[C@H](N)[C@H]1O` [Amikacin], the “Minimal FICI” value with E. coli ESBL 521/17 [1] (setting [11]) turned out to be 0.62; with E. coli ESBL 521/17 [1] (setting [12]), 0.38; in the assay with P. aeruginosa MDR 522/17 [2] (setting [11]) it was 0.5; in the assay with P. aeruginosa MDR 522/17 [2] (setting [12]), 0.5; in [3] (setting [11]), 0.38; in assay [3] (setting [12]) it was 0.31. The “Minimal FICI” value with S. aureus 1399/17 [9] (setting [11]) is 0.125^*; in the assay with S. aureus 1399/17 [9] (setting [12]), 1.0; in the assay on A. baumannii 7226/16 [10] (setting [11]), 0.5^*; in the assay on A. baumannii 7226/16 [10] (setting [12]), 0.38^*. Besides, the MIC in the assay with E. coli ESBL 521/17 [4] was 1 µM; in the assay on S. aureus 1399/17 [5] (setting [13]) it was greater than 50 µM; with P. aeruginosa MDR 522/17 [6] it was 1 µM; in the assay with A. baumannii 7226/16 [7], 6.25 µM; in assay [8], 0.25 µM.

With `CC[C@H]1OC(=O)[C@H](C)[C@@H](O[C@H]2C[C@@](C)(OC)[C@@H](O)[C@H](C)O2)[C@H](C)[C@@H](O[C@@H]2O[C@H](C)C[C@H](N(C)C)[C@H]2O)[C@](C)(O)C[C@@H](C)C(=O)[C@H](C)[C@@H](O)[C@]1(C)O` [Erythromycin], the “Minimal FICI” value is on record as 0.38^* in the assay on E. coli ESBL 521/17 [1] (setting [11]); 0.62 in the assay with E. coli ESBL 521/17 [1] (setting [12]); 0.38^* in the assay on P. aeruginosa MDR 522/17 [2] (setting [11]); 0.5^* in the assay on P. aeruginosa MDR 522/17 [2] (setting [12]); 0.25^* in assay [3] (setting [11]); 0.25^* in [3] (setting [12]). Besides, the “Minimal FICI” value is 0.5^* in the assay on S. aureus 1399/17 [9] (setting [11]), 0.75 in the assay with S. aureus 1399/17 [9] (setting [12]), 0.75 with A. baumannii 7226/16 [10] (setting [11]) and 1.12 in the assay with A. baumannii 7226/16 [10] (setting [12]). The MIC is greater than 50 µM with E. coli ESBL 521/17 [4]; greater than 50 µM in the assay with S. aureus 1399/17 [5] (setting [13]); greater than 50 µM in the assay with P. aeruginosa MDR 522/17 [6]; greater than 50 µM with A. baumannii 7226/16 [7]; 50 µM in assay [8].

As to `C[C@@H](O)[C@H]1C(=O)N2C(C(=O)O)=C(S[C@@H]3CN[C@H](C(=O)N(C)C)C3)[C@H](C)[C@H]12` [Meropenem], the “Minimal FICI” value is 1.0 with E. coli ESBL 521/17 [1] (setting [11]); 1.0 with E. coli ESBL 521/17 [1] (setting [12]); 0.62 in the assay on P. aeruginosa MDR 522/17 [2] (setting [11]); 1.0 in the assay with P. aeruginosa MDR 522/17 [2] (setting [12]); 1.0 in [3] (setting [11]); 1.0 in assay [3] (setting [12]). Also, the “Minimal FICI” value is given as 0.31^* in the assay with S. aureus 1399/17 [9] (setting [11]), 0.25^* with S. aureus 1399/17 [9] (setting [12]), 0.5^* with A. baumannii 7226/16 [10] (setting [11]) and 0.38^* in the assay with A. baumannii 7226/16 [10] (setting [12]). Moreover, the MIC is 0.04 µM with E. coli ESBL 521/17 [4]; 6.25 µM in the assay with S. aureus 1399/17 [5] (1399/17); 25 µM in the assay with P. aeruginosa MDR 522/17 [6]; greater than 50 µM in the assay with A. baumannii 7226/16 [7]; 0.04 µM in assay [8].

As for “GIGDPVTCLKSGAICHPVFCPRRYKQIGTCGLPGTKCCKKP (disulfide 8-37, 15-30, 20-38 (inferred)) [hBD-2]”, the MIC in the assay on MRSA ATCC 33591 was >100 [200] μM. The “AMP concentration in synergy cases with conventional antibiotics” value with bacteria lay in the range of 0.2 to 1.6 µM.

In the case of “GIINTLQKYYCRVRGGRCAVLSCLPKEEQIGKCSTRGRKCCRRKK (disulfide 11-40, 18-33, 23-41 (inferred)) [hBD-3]”, the “AMP concentration in synergy cases with conventional antibiotics” value with bacteria was in the range of 0.08 to 3.75 µM.
